Source: article PMC9132415, “Identification of 1H-pyrazolo[3,4-b]pyridine derivatives as novel and potent TBK1 inhibitors: design, synthesis, biological evaluation, and molecular docking study” (Journal of Enzyme Inhibition and Medicinal Chemistry, 2022)

Key:
[1] = test system: ifnb and cxcl10 gene expression in THP-1 cells; experiment: mRNA detection of TBK1 downstream genes (RT-PCR), poly(I:C)-stimulated THP-1 cells; type: cell-based, human; conditions: compound at 1 µM
[2] = test system: ifnb and cxcl10 gene expression in RAW264.7 cells; experiment: mRNA detection of TBK1 downstream genes (RT-PCR), LPS-stimulated RAW264.7 cells; type: cell-based; conditions: LPS-stimulated murine RAW264.7 cells
[3] = Cytotoxicity to normal cells; type: cell-based; conditions: human, human umbilical vein endothelial cells (HUVECs)
From the text: Figure S1. The cytotoxicity of compound 15y on Human Umbilical Vein Endothelial Cells
(HUVECs). Data are representative of 3 independent experiments and are shown in mean ± SD
value. Nolin fit 4-parameters model were used to fit the curve and to calculate IC50 values by
(1 picture or pasted object on this page, not shown here)

PDGFRβ = PDGFRβ (Homo sapiens, UniProt P09619); experiment: Kinase selectivity profile (SelectScreen); type: biochemical; conditions: remaining kinase activity at 1.0 μM
Procedure: (§1) Compound 15y was evaluated for their inhibitory activities against 31 kinases at a single concentration (1 µM). Two different assay platforms were available for profiling—activity and binding. The Z′-LYTE and Adapta kinase activity assays were used most extensively for profiling and a smaller subset of kinases might be profiled using the LanthaScreen Eu Kinase Binding Assays.

PKA = PKA (Homo sapiens, UniProt P17612); experiment: Kinase selectivity profile (SelectScreen); type: biochemical; conditions: remaining kinase activity at 1.0 μM
Procedure: as §1

eEF-2K = eEF-2K (Homo sapiens, UniProt O00418); experiment: Kinase selectivity profile (SelectScreen); type: biochemical; conditions: remaining kinase activity at 1.0 μM
Procedure: as §1

MEK1 = MEK1 (Homo sapiens, UniProt Q02750); experiment: Kinase selectivity profile (SelectScreen); type: biochemical; conditions: remaining kinase activity at 1.0 μM
Procedure: as §1

IKKβ = IKKβ (Homo sapiens, UniProt O14920); experiment: Kinase selectivity profile (SelectScreen); type: biochemical; conditions: remaining kinase activity at 1.0 μM
Procedure: as §1

PRAK = PRAK (Homo sapiens, UniProt Q8IW41); experiment: Kinase selectivity profile (SelectScreen); type: biochemical; conditions: remaining kinase activity at 1.0 μM
Procedure: as §1

PI3K(p120g) = PI3K(p120g) (Homo sapiens, UniProt P48736); experiment: Kinase selectivity profile (SelectScreen); type: biochemical; conditions: remaining kinase activity at 1.0 μM
Procedure: as §1

Rse = Rse (Homo sapiens, UniProt Q06418); experiment: Kinase selectivity profile (SelectScreen); type: biochemical; conditions: remaining kinase activity at 1.0 μM
Procedure: as §1

EphB4 = EphB4 (Homo sapiens, UniProt P54760); experiment: Kinase selectivity profile (SelectScreen); type: biochemical; conditions: remaining kinase activity at 1.0 μM
Procedure: as §1

PKCα = PKCα (Homo sapiens, UniProt P17252); experiment: Kinase selectivity profile (SelectScreen); type: biochemical; conditions: remaining kinase activity at 1.0 μM
Procedure: as §1

PI3K(p110b/p85a) = PI3K(p110b/p85a) (Homo sapiens, UniProt P42338); experiment: Kinase selectivity profile (SelectScreen); type: biochemical; conditions: remaining kinase activity at 1.0 μM
Procedure: as §1

mTOR = mTOR (Homo sapiens, UniProt P42345); experiment: Kinase selectivity profile (SelectScreen); type: biochemical; conditions: remaining kinase activity at 1.0 μM
Procedure: as §1

SAPK2a = SAPK2a (Homo sapiens, UniProt Q16539); experiment: Kinase selectivity profile (SelectScreen); type: biochemical; conditions: remaining kinase activity at 1.0 μM
Procedure: as §1

PKG1α = PKG1α (Homo sapiens, UniProt Q13976); experiment: Kinase selectivity profile (SelectScreen); type: biochemical; conditions: remaining kinase activity at 1.0 μM
Procedure: as §1

PKBα = PKBα (Homo sapiens, UniProt P31749); experiment: Kinase selectivity profile (SelectScreen); type: biochemical; conditions: remaining kinase activity at 1.0 μM
Procedure: as §1

ASK1 = ASK1 (Homo sapiens, UniProt Q99683); experiment: Kinase selectivity profile (SelectScreen); type: biochemical; conditions: remaining kinase activity at 1.0 μM
Procedure: as §1

PKCθ = PKCθ (Homo sapiens, UniProt Q04759); experiment: Kinase selectivity profile (SelectScreen); type: biochemical; conditions: remaining kinase activity at 1.0 μM
Procedure: as §1

SRPK1 = SRPK1 (Homo sapiens, UniProt Q96SB4); experiment: Kinase selectivity profile (SelectScreen); type: biochemical; conditions: remaining kinase activity at 1.0 μM
Procedure: as §1

ALK = ALK (Homo sapiens, UniProt Q9UM73); experiment: Kinase selectivity profile (SelectScreen); type: biochemical; conditions: remaining kinase activity at 1.0 μM
Procedure: as §1

IGF-1R = IGF-1R (Homo sapiens, UniProt P08069); experiment: Kinase selectivity profile (SelectScreen); type: biochemical; conditions: remaining kinase activity at 1.0 μM
Procedure: as §1

EGFR = EGFR (Homo sapiens, UniProt P00533); experiment: Kinase selectivity profile (SelectScreen); type: biochemical; conditions: remaining kinase activity at 1.0 μM
Procedure: as §1

EphA5 = EphA5 (Homo sapiens, UniProt P54756); experiment: Kinase selectivity profile (SelectScreen); type: biochemical; conditions: remaining kinase activity at 1.0 μM
Procedure: as §1

PI3K(p110a/p85a) = PI3K(p110a/p85a) (Homo sapiens, UniProt P42336); experiment: Kinase selectivity profile (SelectScreen); type: biochemical; conditions: remaining kinase activity at 1.0 μM
Procedure: as §1

MAPKAP-K2 = MAPKAP-K2 (Homo sapiens, UniProt P49137); experiment: Kinase selectivity profile (SelectScreen); type: biochemical; conditions: remaining kinase activity at 1.0 μM
Procedure: as §1

CK1γ1 = CK1γ1 (Homo sapiens, UniProt Q9HCP0); experiment: Kinase selectivity profile (SelectScreen); type: biochemical; conditions: remaining kinase activity at 1.0 μM
Procedure: as §1

PLK3 = PLK3 (Homo sapiens, UniProt Q9H4B4); experiment: Kinase selectivity profile (SelectScreen); type: biochemical; conditions: remaining kinase activity at 1.0 μM
Procedure: as §1

A2058 cells = experiment: Antiproliferative activity, SRB staining; type: cell-based; conditions: Homo sapiens, melanoma cell line, 72 h
Procedure: (§2) A172, U87MG, A375, A2058, and Panc0504 cell lines were obtained from ATCC and cultured in indicated medium according to ATCC’s instructions. Cells were seeded in 96 well-plates at a destiny of around 2000 cells per well one day prior to administrated to increasing doses of indicated compounds. After 72 h of treatment, cells were washed with PBS and were fixed by 10% trichloroacetic acid before stained by sulphorhodamine B (SRB) solution. Unstained SRB were washed away by 1% acetic acid to reduce background signals. A Tris-based solution (10 mM) were used to dissolve stained SRB and the absorbance at 540 nm was measured with SpectraMax Paradigm (Molecular Devices). Inhibition rate was calculated by the relative absorbance value of test compound wells with the average of control wells […].

A375 cells = experiment: Antiproliferative activity, SRB staining; type: cell-based; conditions: Homo sapiens, A-375, melanoma cell line, 72 h
Procedure: as §2

U87MG cells = experiment: Antiproliferative activity, SRB staining; type: cell-based; conditions: Homo sapiens, U-87 MG, glioma cell line, 72 h
Procedure: as §2

Panc0504 cells = experiment: Antiproliferative activity, SRB staining; type: cell-based; conditions: Panc 05.04, pancreatic cell line, 72 h
Procedure: as §2

A172 cells = experiment: Antiproliferative activity, SRB staining; type: cell-based; conditions: Homo sapiens, A 172, glioma cell line, 72 h
Procedure: as §2

PLK3, sequence (Q9H4B4 whole entry): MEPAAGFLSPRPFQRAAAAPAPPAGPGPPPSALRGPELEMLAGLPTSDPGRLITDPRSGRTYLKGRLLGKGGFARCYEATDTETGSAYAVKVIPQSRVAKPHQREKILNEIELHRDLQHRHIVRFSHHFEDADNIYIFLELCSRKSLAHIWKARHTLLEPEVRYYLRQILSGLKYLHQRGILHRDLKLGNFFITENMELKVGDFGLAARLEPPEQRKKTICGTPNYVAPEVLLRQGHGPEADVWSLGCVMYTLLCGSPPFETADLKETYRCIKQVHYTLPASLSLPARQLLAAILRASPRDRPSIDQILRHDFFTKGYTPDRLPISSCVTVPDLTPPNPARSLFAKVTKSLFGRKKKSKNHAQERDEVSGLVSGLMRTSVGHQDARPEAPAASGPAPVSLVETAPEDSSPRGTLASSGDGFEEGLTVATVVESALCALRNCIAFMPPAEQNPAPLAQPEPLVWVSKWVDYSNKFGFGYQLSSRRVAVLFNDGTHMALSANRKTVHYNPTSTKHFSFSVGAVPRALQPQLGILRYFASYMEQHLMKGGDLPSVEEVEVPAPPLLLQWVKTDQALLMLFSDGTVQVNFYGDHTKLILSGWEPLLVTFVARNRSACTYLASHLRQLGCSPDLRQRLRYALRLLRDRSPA
CK1γ1, sequence (Q9HCP0 whole entry): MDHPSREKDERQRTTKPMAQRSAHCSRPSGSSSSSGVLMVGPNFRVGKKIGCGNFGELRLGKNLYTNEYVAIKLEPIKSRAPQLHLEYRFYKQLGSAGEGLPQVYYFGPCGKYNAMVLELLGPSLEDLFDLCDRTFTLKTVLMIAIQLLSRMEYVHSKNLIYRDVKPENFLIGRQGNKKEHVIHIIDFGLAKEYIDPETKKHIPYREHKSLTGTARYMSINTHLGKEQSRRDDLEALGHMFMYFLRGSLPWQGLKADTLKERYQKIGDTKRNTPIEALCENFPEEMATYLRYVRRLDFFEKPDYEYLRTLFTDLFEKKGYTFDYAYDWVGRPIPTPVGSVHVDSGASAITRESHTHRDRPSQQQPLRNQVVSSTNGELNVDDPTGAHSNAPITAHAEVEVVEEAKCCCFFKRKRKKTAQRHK
ALK, sequence (Q9UM73 19-1620): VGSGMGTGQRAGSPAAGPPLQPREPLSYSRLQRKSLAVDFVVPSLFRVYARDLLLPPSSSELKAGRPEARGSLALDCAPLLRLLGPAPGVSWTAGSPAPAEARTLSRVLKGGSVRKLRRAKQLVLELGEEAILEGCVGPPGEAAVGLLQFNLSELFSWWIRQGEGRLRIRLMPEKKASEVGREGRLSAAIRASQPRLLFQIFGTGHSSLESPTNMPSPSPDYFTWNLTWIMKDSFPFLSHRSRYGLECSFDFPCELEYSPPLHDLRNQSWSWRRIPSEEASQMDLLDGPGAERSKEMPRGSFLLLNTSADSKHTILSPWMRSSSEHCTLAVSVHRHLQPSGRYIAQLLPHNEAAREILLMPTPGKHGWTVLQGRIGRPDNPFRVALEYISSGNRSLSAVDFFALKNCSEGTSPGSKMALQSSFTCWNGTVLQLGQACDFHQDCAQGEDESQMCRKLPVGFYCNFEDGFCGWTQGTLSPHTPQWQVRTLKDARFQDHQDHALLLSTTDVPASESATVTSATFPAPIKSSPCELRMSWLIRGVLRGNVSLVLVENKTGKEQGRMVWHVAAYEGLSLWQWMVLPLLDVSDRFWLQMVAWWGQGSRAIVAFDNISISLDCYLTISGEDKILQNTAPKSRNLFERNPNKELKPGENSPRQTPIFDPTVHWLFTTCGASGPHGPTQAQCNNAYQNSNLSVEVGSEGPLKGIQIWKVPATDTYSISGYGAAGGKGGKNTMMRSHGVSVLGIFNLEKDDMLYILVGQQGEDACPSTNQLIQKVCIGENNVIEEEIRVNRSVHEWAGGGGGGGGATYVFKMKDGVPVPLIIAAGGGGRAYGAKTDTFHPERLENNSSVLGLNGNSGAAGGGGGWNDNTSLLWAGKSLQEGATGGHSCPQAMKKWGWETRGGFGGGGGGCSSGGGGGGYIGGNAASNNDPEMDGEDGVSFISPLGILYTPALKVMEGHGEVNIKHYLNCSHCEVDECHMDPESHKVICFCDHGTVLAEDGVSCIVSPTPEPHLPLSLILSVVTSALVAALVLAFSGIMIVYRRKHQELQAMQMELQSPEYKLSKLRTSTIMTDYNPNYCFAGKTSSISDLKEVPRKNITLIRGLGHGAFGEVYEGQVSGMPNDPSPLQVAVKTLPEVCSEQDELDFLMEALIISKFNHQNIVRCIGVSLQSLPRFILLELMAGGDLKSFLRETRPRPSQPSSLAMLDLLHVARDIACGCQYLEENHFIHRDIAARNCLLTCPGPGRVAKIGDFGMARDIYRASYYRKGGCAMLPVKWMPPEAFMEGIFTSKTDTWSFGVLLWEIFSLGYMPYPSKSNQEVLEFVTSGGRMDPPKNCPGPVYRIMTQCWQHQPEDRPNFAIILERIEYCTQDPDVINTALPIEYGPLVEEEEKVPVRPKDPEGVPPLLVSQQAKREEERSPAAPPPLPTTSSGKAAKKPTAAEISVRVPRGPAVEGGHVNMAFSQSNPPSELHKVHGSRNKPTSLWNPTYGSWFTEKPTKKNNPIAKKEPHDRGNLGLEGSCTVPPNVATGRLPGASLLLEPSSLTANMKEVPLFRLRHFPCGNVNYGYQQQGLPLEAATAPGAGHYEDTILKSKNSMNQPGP
SRPK1, sequence (Q96SB4 whole entry): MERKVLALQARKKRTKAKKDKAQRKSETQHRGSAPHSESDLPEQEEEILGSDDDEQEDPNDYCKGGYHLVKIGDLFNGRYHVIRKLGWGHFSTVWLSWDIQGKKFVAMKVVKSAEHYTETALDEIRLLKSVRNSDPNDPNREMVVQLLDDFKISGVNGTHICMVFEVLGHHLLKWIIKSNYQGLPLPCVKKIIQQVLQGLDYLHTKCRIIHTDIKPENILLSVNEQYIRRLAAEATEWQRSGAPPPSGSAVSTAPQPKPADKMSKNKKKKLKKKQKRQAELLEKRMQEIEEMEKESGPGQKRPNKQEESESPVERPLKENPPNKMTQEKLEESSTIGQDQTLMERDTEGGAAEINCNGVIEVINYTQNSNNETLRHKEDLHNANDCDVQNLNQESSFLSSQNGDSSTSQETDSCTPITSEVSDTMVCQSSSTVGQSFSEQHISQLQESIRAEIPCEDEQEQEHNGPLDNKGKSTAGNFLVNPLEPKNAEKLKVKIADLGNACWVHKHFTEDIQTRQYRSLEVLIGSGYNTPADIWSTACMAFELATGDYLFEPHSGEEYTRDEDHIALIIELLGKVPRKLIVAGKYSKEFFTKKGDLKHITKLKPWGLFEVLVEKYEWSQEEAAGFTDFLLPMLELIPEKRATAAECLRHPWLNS
Rse, sequence (Q06418 41-890): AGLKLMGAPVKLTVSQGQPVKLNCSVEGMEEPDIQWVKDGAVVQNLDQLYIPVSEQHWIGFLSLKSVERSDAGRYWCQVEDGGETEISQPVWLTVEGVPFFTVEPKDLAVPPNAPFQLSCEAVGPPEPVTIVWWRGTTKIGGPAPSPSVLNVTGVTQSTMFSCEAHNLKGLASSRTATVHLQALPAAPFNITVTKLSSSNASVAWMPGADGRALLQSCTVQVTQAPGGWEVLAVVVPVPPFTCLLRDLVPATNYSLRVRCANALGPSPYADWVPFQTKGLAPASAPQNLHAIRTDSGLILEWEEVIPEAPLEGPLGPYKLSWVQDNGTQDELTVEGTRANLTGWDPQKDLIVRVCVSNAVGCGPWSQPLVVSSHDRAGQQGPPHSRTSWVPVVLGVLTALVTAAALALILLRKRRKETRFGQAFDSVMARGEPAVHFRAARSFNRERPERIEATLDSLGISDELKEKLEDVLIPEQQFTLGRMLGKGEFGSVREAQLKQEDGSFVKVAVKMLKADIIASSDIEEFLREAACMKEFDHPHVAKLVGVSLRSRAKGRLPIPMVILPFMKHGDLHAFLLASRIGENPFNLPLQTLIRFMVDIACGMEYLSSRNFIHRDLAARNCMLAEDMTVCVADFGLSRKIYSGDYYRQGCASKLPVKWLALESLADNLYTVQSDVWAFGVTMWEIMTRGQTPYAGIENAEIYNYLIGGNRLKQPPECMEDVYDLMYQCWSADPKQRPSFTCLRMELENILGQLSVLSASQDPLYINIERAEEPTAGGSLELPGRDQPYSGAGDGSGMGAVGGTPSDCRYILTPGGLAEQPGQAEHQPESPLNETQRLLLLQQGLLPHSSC
SAPK2a, sequence (Q16539 whole entry): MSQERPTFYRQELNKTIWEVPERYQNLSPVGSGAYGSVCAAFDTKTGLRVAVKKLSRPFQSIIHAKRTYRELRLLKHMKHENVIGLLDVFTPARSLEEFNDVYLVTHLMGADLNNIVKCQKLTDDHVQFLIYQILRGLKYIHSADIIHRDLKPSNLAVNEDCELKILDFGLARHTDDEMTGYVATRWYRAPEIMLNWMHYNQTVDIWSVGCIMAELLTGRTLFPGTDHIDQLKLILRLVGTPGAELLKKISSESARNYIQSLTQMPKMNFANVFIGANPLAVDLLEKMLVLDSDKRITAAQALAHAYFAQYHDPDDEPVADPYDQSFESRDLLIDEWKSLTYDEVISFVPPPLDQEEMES
PKBα, sequence (P31749 whole entry): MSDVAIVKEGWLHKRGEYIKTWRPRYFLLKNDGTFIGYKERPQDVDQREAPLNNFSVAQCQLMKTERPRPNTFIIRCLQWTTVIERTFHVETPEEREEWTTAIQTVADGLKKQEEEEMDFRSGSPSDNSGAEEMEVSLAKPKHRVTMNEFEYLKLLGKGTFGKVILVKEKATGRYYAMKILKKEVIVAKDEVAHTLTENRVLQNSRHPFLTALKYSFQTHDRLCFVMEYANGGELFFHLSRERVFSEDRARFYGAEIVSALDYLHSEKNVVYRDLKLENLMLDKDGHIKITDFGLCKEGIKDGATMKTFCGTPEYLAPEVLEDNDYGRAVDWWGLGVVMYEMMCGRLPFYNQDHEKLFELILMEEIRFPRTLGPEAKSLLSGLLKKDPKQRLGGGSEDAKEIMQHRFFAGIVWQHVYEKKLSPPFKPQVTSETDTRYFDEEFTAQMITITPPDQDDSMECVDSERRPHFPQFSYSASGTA

Question: With `Cc1nc2c(F)cc(-c3n[nH]c4ncc(-c5cccc(S(N)(=O)=O)c5)cc34)cc2n1C(C)C` [Compound 15y] as the molecule, how does the “inhibition of cxcl10 expression” value [1] read?
Answer: > 93%

Question: What about the “inhibition of ifnb expression” value [1] of the same molecule?
Answer: > 93%

Question: And the “inhibition of ifnb and cxcl10 expression” value [2]?
Answer: profound activity

Question: What about the IC50 [3] of the same molecule?
Answer: 21.2 µM

Question: What about the “%kinase activity @ 1.0 μM, PDGFRβ” value (PDGFRβ) of the same molecule?
Answer: 21%

Question: And the “%kinase activity @ 1.0 μM, PKA” value (PKA)?
Answer: 84%

Question: And the “%kinase activity @ 1.0 μM, eEF-2K” value (eEF-2K)?
Answer: 108%

Question: What about the “%kinase activity @ 1.0 μM, MEK1” value (MEK1) of the same molecule?
Answer: 52%

Question: And the “%kinase activity @ 1.0 μM, IKKβ” value (IKKβ)?
Answer: 32%

Question: What about the “%kinase activity @ 1.0 μM, PRAK” value (PRAK) of the same molecule?
Answer: 60%

Question: What about the “%kinase activity @ 1.0 μM, PI3K(p120g)” value (PI3K(p120g)) of the same molecule?
Answer: 32%

Question: And the “%kinase activity @ 1.0 μM, Rse” value (Rse)?
Answer: 49%

Question: And the “%kinase activity @ 1.0 μM, EphB4” value (EphB4)?
Answer: 77%

Question: What about the “%kinase activity @ 1.0 μM, PKCα” value (PKCα) of the same molecule?
Answer: 27%

Question: And the “%kinase activity @ 1.0 μM, PI3K(p110b/p85a)” value (PI3K(p110b/p85a))?
Answer: 95%

Question: And the “%kinase activity @ 1.0 μM, mTOR” value (mTOR)?
Answer: 30%

Question: And the “%kinase activity @ 1.0 μM, SAPK2a” value (SAPK2a)?
Answer: 60%

Question: And the “%kinase activity @ 1.0 μM, PKG1α” value (PKG1α)?
Answer: 54%

Question: And the activity at 1 µM (PKBα)?
Answer: 111%

Question: What about the “%kinase activity @ 1.0 μM, ASK1” value (ASK1) of the same molecule?
Answer: 56%

Question: What about the “%kinase activity @ 1.0 μM, PKCθ” value (PKCθ) of the same molecule?
Answer: 33%

Question: And the “%kinase activity @ 1.0 μM, SRPK1” value (SRPK1)?
Answer: 58%

Question: And the “%kinase activity @ 1.0 μM, ALK” value (ALK)?
Answer: 28%

Question: What about the “%kinase activity @ 1.0 μM, IGF-1R” value (IGF-1R) of the same molecule?
Answer: 88%

Question: What about the “%kinase activity @ 1.0 μM, EGFR” value (EGFR) of the same molecule?
Answer: 66%

Question: And the “%kinase activity @ 1.0 μM, EphA5” value (EphA5)?
Answer: 51%

Question: What about the “%kinase activity @ 1.0 μM, PI3K(p110a/p85a)” value (PI3K(p110a/p85a)) of the same molecule?
Answer: 69%

Question: And the “%kinase activity @ 1.0 μM, MAPKAP-K2” value (MAPKAP-K2)?
Answer: 95%

Question: And the “%kinase activity @ 1.0 μM, CK1γ1” value (CK1γ1)?
Answer: 33%

Question: And the “%kinase activity @ 1.0 μM, PLK3” value (PLK3)?
Answer: 101%

Question: And the IC50 (A2058 cells)?
Answer: 0.9 µM

Question: And the IC50 (A375 cells)?
Answer: 3.1 µM

Question: What about the IC50 (U87MG cells) of the same molecule?
Answer: 2.4 µM

Question: What about the IC50 (Panc0504 cells) of the same molecule?
Answer: 3.6 µM

Question: What about the IC50 (A172 cells) of the same molecule?
Answer: 1.4 µM
